Results as given in PubChem BioAssay AID2060610 (Molecular Pharmacology Branch, DTP, NCI, 2025).

Tested on: 616215-338-R-J1-PDC complex spheroids, viability % test/control
Assay: Anticancer human tumor 616215-338-R-J1-PDC patient-derived colon adenocarcinoma cell line growth inhibition [CLK]
Settings: for IC50: curve of first compound; for viability, T/C: stronger effect = lower value
Procedure, shortened: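 Multi-cell-type spheroids combined patient-derived tumor cells with HUVEC endothelial cells and human mesenchymal stem cells. Paired agents were dosed in half-log steps down from about clinical Cmax, or from 10 microM where Cmax was unknown.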
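Note: spheroids exposed to agents for 7 days.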
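Throughout, for viability, T/C: 100% = DMSO vehicle wells.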

Compound: COc1cccc2c1C(=O)c1c(O)c3c(c(O)c1C2=O)CC(O)(C(=O)CO)CC3OC1CC(N)C(O)C(C)O1 (centres undefined) + CNC(=O)c1ccc(Nc2nc(OC3CCCC3)c3c(-c4ccc5nc(C)oc5c4)c[nH]c3n2)c(OC)c1
- IC50 (second compound 0.0316 µM): 328 nM
- IC50 (second compound 0.1 µM): 340 nM
- IC50 (second compound 0.316 µM): < 31.6 nM
- IC50 (second compound 1 µM): 494 nM
- IC50 (second compound 3.16 µM): 548 nM
- IC50 (second compound 10 µM): 533 nM
- viability, T/C (second compound 0.0316 µM, first compound 0.0316 µM): 111%
- viability, T/C (second compound 0.0316 µM, first compound 0.1 µM): 72.6%
- viability, T/C (second compound 0.0316 µM, first compound 0.316 µM): 54.1%
- viability, T/C (second compound 0.0316 µM, first compound 1 µM): 34.5%
- viability, T/C (second compound 0.0316 µM, first compound 3.16 µM): 1.22%
- viability, T/C (second compound 0.0316 µM, first compound 10 µM): 0.82%
- viability, T/C (second compound 0.1 µM, first compound 0.0316 µM): 53.8%
- viability, T/C (second compound 0.1 µM, first compound 0.1 µM): 57.7%
- viability, T/C (second compound 0.1 µM, first compound 0.316 µM): 42.7%
- viability, T/C (second compound 0.1 µM, first compound 1 µM): 35.9%
- viability, T/C (second compound 0.1 µM, first compound 3.16 µM): 0.57%
- viability, T/C (second compound 0.1 µM, first compound 10 µM): 0.99%
- viability, T/C (second compound 0.316 µM, first compound 0.0316 µM): 55.7%
- viability, T/C (second compound 0.316 µM, first compound 0.1 µM): 47.1%
- viability, T/C (second compound 0.316 µM, first compound 0.316 µM): 46.8%
- viability, T/C (second compound 0.316 µM, first compound 1 µM): 42.1%
- viability, T/C (second compound 0.316 µM, first compound 3.16 µM): 0.32%
- viability, T/C (second compound 0.316 µM, first compound 10 µM): 0.17%
- viability, T/C (second compound 1 µM, first compound 0.0316 µM): 49.7%
- viability, T/C (second compound 1 µM, first compound 0.1 µM): 61.3%
- viability, T/C (second compound 1 µM, first compound 0.316 µM): 75.6%
- viability, T/C (second compound 1 µM, first compound 1 µM): 30.7%
- viability, T/C (second compound 1 µM, first compound 3.16 µM): 0.2%
- viability, T/C (second compound 1 µM, first compound 10 µM): 0.17%
- viability, T/C (second compound 3.16 µM, first compound 0.0316 µM): 61.8%
- viability, T/C (second compound 3.16 µM, first compound 0.1 µM): 66.6%
- viability, T/C (second compound 3.16 µM, first compound 0.316 µM): 81.3%
- viability, T/C (second compound 3.16 µM, first compound 1 µM): 28.3%
- viability, T/C (second compound 3.16 µM, first compound 3.16 µM): 0.16%
- viability, T/C (second compound 3.16 µM, first compound 10 µM): 2.18%
- viability, T/C (second compound 10 µM, first compound 0.0316 µM): 58.2%
- viability, T/C (second compound 10 µM, first compound 0.1 µM): 56%
- viability, T/C (second compound 10 µM, first compound 0.316 µM): 79.7%
- viability, T/C (second compound 10 µM, first compound 1 µM): 32.4%
- viability, T/C (second compound 10 µM, first compound 3.16 µM): 0.24%
- viability, T/C (second compound 10 µM, first compound 10 µM): 1.24%

Compound: CC(C)CC(NC(=O)C(Cc1ccccc1)NC(=O)c1cnccn1)B(O)O (centres undefined) + CNC(=O)c1ccc(Nc2nc(OC3CCCC3)c3c(-c4ccc5nc(C)oc5c4)c[nH]c3n2)c(OC)c1
- IC50 (second compound 0.0316 µM): 5.4 nM
- IC50 (second compound 0.1 µM): 4.28 nM
- IC50 (second compound 0.316 µM): < 0.949 nM
- IC50 (second compound 1 µM): < 0.949 nM
- IC50 (second compound 3.16 µM): < 0.949 nM
- IC50 (second compound 10 µM): < 0.949 nM
- viability, T/C (second compound 0.0316 µM, first compound 0.000949 µM): 93.4%
- viability, T/C (second compound 0.0316 µM, first compound 0.003 µM): 110%
- viability, T/C (second compound 0.0316 µM, first compound 0.00949 µM): 0.37%
- viability, T/C (second compound 0.0316 µM, first compound 0.03 µM): 0.24%
- viability, T/C (second compound 0.0316 µM, first compound 0.0949 µM): 0.24%
- viability, T/C (second compound 0.0316 µM, first compound 0.3 µM): 1.23%
- viability, T/C (second compound 0.1 µM, first compound 0.000949 µM): 55.6%
- viability, T/C (second compound 0.1 µM, first compound 0.003 µM): 88.9%
- viability, T/C (second compound 0.1 µM, first compound 0.00949 µM): 0.21%
- viability, T/C (second compound 0.1 µM, first compound 0.03 µM): 0.22%
- viability, T/C (second compound 0.1 µM, first compound 0.0949 µM): 0.18%
- viability, T/C (second compound 0.1 µM, first compound 0.3 µM): 0.5%
- viability, T/C (second compound 0.316 µM, first compound 0.000949 µM): 45.9%
- viability, T/C (second compound 0.316 µM, first compound 0.003 µM): 38.4%
- viability, T/C (second compound 0.316 µM, first compound 0.00949 µM): 0.2%
- viability, T/C (second compound 0.316 µM, first compound 0.03 µM): 0.18%
- viability, T/C (second compound 0.316 µM, first compound 0.0949 µM): 0.15%
- viability, T/C (second compound 0.316 µM, first compound 0.3 µM): 0.86%
- viability, T/C (second compound 1 µM, first compound 0.000949 µM): 45.3%
- viability, T/C (second compound 1 µM, first compound 0.003 µM): 29.9%
- viability, T/C (second compound 1 µM, first compound 0.00949 µM): 0.19%
- viability, T/C (second compound 1 µM, first compound 0.03 µM): 0.15%
- viability, T/C (second compound 1 µM, first compound 0.0949 µM): 1.71%
- viability, T/C (second compound 1 µM, first compound 0.3 µM): 1.14%
- viability, T/C (second compound 3.16 µM, first compound 0.000949 µM): 45.7%
- viability, T/C (second compound 3.16 µM, first compound 0.003 µM): 18.6%
- viability, T/C (second compound 3.16 µM, first compound 0.00949 µM): 0.16%
- viability, T/C (second compound 3.16 µM, first compound 0.03 µM): 0.16%
- viability, T/C (second compound 3.16 µM, first compound 0.0949 µM): 0.18%
- viability, T/C (second compound 3.16 µM, first compound 0.3 µM): 1.5%
- viability, T/C (second compound 10 µM, first compound 0.000949 µM): 45.9%
- viability, T/C (second compound 10 µM, first compound 0.003 µM): 19.5%
- viability, T/C (second compound 10 µM, first compound 0.00949 µM): 0.22%
- viability, T/C (second compound 10 µM, first compound 0.03 µM): 0.18%
- viability, T/C (second compound 10 µM, first compound 0.0949 µM): 1.53%
- viability, T/C (second compound 10 µM, first compound 0.3 µM): 2.83%
